The results in this text go back to ChEMBL document CHEMBL1201862, “PubChem BioAssay data set” (2004).

Among the test systems are HT-29; HOP-62; Malme-3M; RXF 393; OVCAR-5; PC-3; K562; SR; SK-MEL-2; NCI/ADR-RES; CCRF-CEM; HCC 2998; ACHN; NCI-H23; SN12C; OVCAR-3; KM12; NCI-H460; HCT-15; LOX IMVI.
Test in all cases: NCI anticancer screen, dose series, 48 h

Structures are written as SMILES.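 Compound exposure: 48 hours, 5 concentrations, 96-well plates. GI50 = concentration required for 50% inhibition of growth.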 Calls of active or inactive are those of the source. Rule as the data show it: active = GI50 up to about 1.1 µM and inactive = higher.

`COc1c(-c2ccc(F)cc2)oc2c(CC(=O)O)cccc2c1=O`: the GI50 in the experiment with HT-29, in the experiment on HOP-62, in the experiment on Malme-3M, with RXF 393, with OVCAR-5 and with PC-3 was > 100 µM (inactive) in each case. For the same compound, the GI50 in the experiment with K562, in the experiment with SR, with SK-MEL-2, in the experiment on NCI/ADR-RES, in the experiment with CCRF-CEM and with HCC 2998 was > 100 µM (inactive) in each case. Further, the GI50 is > 100 µM (inactive) with ACHN, 45.5 µM (inactive) with NCI-H23, > 100 µM (inactive) in the experiment with SN12C and > 100 µM (inactive) in the experiment with OVCAR-3.

Take `COc1ccc(C2(CC(C)C)CCN(S(=O)(=O)c3ccc(C)cc3)C2)cc1OC` (stereo not given): the GI50 was 35.6 µM (inactive) with HT-29; 45.5 µM (inactive) in the experiment on HOP-62; 34 µM (inactive) in the experiment on RXF 393; > 100 µM (inactive) in the experiment with OVCAR-5; 23.3 µM (inactive) with KM12; 29.2 µM (inactive) with NCI-H460. Moreover, the GI50 in the experiment on PC-3 is 28.5 µM (inactive); in the experiment with K562 it was 2.88 µM (inactive); with SR, 1.11 µM (active); in the experiment with SK-MEL-2, 20.7 µM (inactive); with NCI/ADR-RES, 18.5 µM (inactive); in the experiment on CCRF-CEM, 17.9 µM (inactive). Also, the GI50 in the experiment on HCC 2998 was 27.6 µM (inactive); with ACHN it was 36.6 µM (inactive); in the experiment with HCT-15, 31.7 µM; with NCI-H23 it was 29.8 µM (inactive); with SN12C it was > 100 µM (inactive); in the experiment with LOX IMVI, 19.5 µM (inactive). In addition, in the experiment with OVCAR-3, the GI50 was 18.9 µM (inactive).

For `NNC(=O)c1nn[nH]c1C(=O)NN`, the GI50 was 13.5 µM (inactive) with HT-29; > 100 µM (inactive) in the experiment on HOP-62; 15.1 µM (inactive) in the experiment with Malme-3M; > 100 µM (inactive) in the experiment on RXF 393; > 100 µM (inactive) in the experiment on OVCAR-5; > 100 µM (inactive) in the experiment on KM12. The GI50 in the experiment with NCI-H460, with PC-3, with K562, with SR, in the experiment on SK-MEL-2 and in the experiment with NCI/ADR-RES was > 100 µM (inactive) each time. In addition, the GI50 with CCRF-CEM was > 100 µM (inactive); with HCC 2998, > 100 µM (inactive); with HCT-15, above 100 µM; in the experiment with NCI-H23 it was > 100 µM (inactive); in the experiment on SN12C it was > 100 µM (inactive); in the experiment on OVCAR-3, > 100 µM (inactive).

In the case of `c1cc(-c2csc(-c3ccsc3)c2)cs1`, the GI50 with HT-29 is > 100 µM (inactive); in the experiment with HOP-62 it was 71.6 µM (inactive); with RXF 393, > 100 µM (inactive); in the experiment on OVCAR-5, 88.9 µM (inactive); in the experiment on KM12, 63.4 µM (inactive); in the experiment with NCI-H460, > 100 µM (inactive). In addition, the GI50 in the experiment on PC-3 is 58.9 µM (inactive); in the experiment on K562, > 100 µM (inactive); in the experiment with SR it was > 100 µM (inactive); in the experiment with NCI/ADR-RES, > 100 µM (inactive); with CCRF-CEM, > 100 µM (inactive); with HCC 2998 it was 42.5 µM (inactive). The GI50 was > 100 µM (inactive) with ACHN; above 100 µM with HCT-15; > 100 µM (inactive) in the experiment on NCI-H23; > 100 µM (inactive) in the experiment on SN12C; > 100 µM (inactive) in the experiment with LOX IMVI; 52.1 µM (inactive) in the experiment on OVCAR-3.

For the compound `NC(=S)N/N=C1\CCCCc2ccccc21`, the GI50 in the experiment on HT-29, in the experiment on HOP-62, in the experiment on Malme-3M, in the experiment on RXF 393, in the experiment on OVCAR-5 and in the experiment on KM12 was > 10 µM (inactive) each time. Also, the GI50 in the experiment with NCI-H460, in the experiment with PC-3, with K562, in the experiment with SR, in the experiment on SK-MEL-2 and in the experiment with NCI/ADR-RES was > 10 µM (inactive) throughout. Moreover, the GI50 was > 10 µM (inactive) in the experiment on CCRF-CEM; > 10 µM (inactive) in the experiment with HCC 2998; > 10 µM (inactive) with ACHN; above 10 µM in the experiment on HCT-15; > 10 µM (inactive) with NCI-H23; > 10 µM (inactive) in the experiment with SN12C. Also, the GI50 in the experiment with OVCAR-3 is > 10 µM (inactive).

`COC1CC(OC2C(C)OC(OC3C(C)OC(OC4C(C)OC(O[C@H]5CC[C@@]6(C)C(=CC[C@]7(O)[C@@H]6C[C@@H](O)[C@@]6(C)[C@]7(O)CC[C@@]6(O)C(C)=O)C5)CC4OC)CC3OC)CC2OC)OC(C)C1O` (stereo not given in full): the GI50 in the experiment on HT-29, with HOP-62, in the experiment with Malme-3M, in the experiment on OVCAR-5, with KM12 and in the experiment on PC-3 was > 12.5 µM (inactive) each time. The GI50 in the experiment on K562, in the experiment on SR, in the experiment on SK-MEL-2, in the experiment on NCI/ADR-RES, in the experiment on CCRF-CEM and in the experiment on HCC 2998 was > 12.5 µM (inactive) each time. Also, the GI50 was > 12.5 µM (inactive) in the experiment with ACHN; above 12.5 µM with HCT-15; > 12.5 µM (inactive) in the experiment on NCI-H23; > 12.5 µM (inactive) in the experiment on SN12C; > 12.5 µM (inactive) with LOX IMVI; > 12.5 µM (inactive) in the experiment with OVCAR-3.

Turning to `N#C/C(N)=C(C#N)/N=C/Nc1ccccc1N`, the GI50 in the experiment on HT-29, in the experiment on HOP-62, with Malme-3M, in the experiment with OVCAR-5, in the experiment with KM12 and in the experiment on NCI-H460 was > 100 µM (inactive) throughout. The GI50 in the experiment with PC-3, with K562, in the experiment with SR, with SK-MEL-2, in the experiment on NCI/ADR-RES and in the experiment with CCRF-CEM was > 100 µM (inactive) in each case. For the same compound, the GI50 in the experiment with HCC 2998 was > 100 µM (inactive); in the experiment on ACHN, > 100 µM (inactive); in the experiment with HCT-15 it was above 100 µM; with NCI-H23, > 100 µM (inactive); with SN12C, > 100 µM (inactive); in the experiment on LOX IMVI, > 100 µM (inactive). Further, the GI50 with OVCAR-3 is > 100 µM (inactive).

Take `COC(=O)NC1C(C)OC(OC2C/C=C(/C)C3C=CC4C(OC5CC(OC6CC(OC7CC(O)C(O)C(C)O7)C(OC7CC(O)C(OC)C(C)O7)C(C)O6)C(O)C(C)O5)C(C)CC(C)C4C3(C)C(=O)C3=C(O)C4(CC(C)C(CO)=CC4/C=C\2C)OC3=O)CC1(C)[N+](=O)[O-]` (stereo not given): the GI50 in the experiment with HT-29 was 7.83 µM (inactive); in the experiment on HOP-62, 3.38 µM (inactive); with OVCAR-5, 16.9 µM (inactive); in the experiment with KM12, 6.7 µM (inactive); with NCI-H460, 2.06 µM (inactive); in the experiment on PC-3, 16.3 µM (inactive). Also, the GI50 in the experiment with SR is 2.71 µM (inactive); in the experiment on SK-MEL-2, 11.6 µM (inactive); with NCI/ADR-RES it was 38.7 µM (inactive); in the experiment on CCRF-CEM, 3.29 µM (inactive); with HCC 2998 it was 3.49 µM (inactive); with ACHN, 11.6 µM (inactive). For the same compound, the GI50 was 15.6 µM in the experiment with HCT-15, 12.9 µM (inactive) in the experiment with NCI-H23, 11.7 µM (inactive) in the experiment on SN12C and 3.23 µM (inactive) in the experiment on LOX IMVI.

`CC(C)NC(NC(C)C)=C(S(=O)(=O)C(F)(F)C(F)(F)C(F)(F)C(F)(F)F)S(=O)(=O)C(F)(F)C(F)(F)C(F)(F)C(F)(F)F`: the GI50 with HT-29, with HOP-62, in the experiment with Malme-3M, in the experiment with OVCAR-5, in the experiment on KM12 and with NCI-H460 was > 100 µM (inactive) each time. The GI50 in the experiment on PC-3, with K562, with SR, in the experiment with SK-MEL-2, in the experiment with NCI/ADR-RES and in the experiment on CCRF-CEM was > 100 µM (inactive) in each case. The GI50 with HCC 2998 is > 100 µM (inactive); with ACHN, > 100 µM (inactive); in the experiment on HCT-15, above 100 µM; in the experiment on NCI-H23, > 100 µM (inactive); in the experiment on SN12C it was > 100 µM (inactive); with LOX IMVI it was > 100 µM (inactive). Further, the GI50 with OVCAR-3 was > 100 µM (inactive).

Take `Cc1ccn2c(=O)cc(CN3CCOCC3)nc2c1`: the GI50 in the experiment with HT-29, in the experiment with HOP-62, in the experiment on Malme-3M, in the experiment with OVCAR-5, in the experiment on KM12 and in the experiment on NCI-H460 was > 100 µM (inactive) throughout. Besides, the GI50 in the experiment with PC-3, with K562, in the experiment with SR, with SK-MEL-2, in the experiment on NCI/ADR-RES and in the experiment with CCRF-CEM was > 100 µM (inactive) throughout. For the same compound, the GI50 in the experiment on HCC 2998 is > 100 µM (inactive); in the experiment with ACHN, > 100 µM (inactive); in the experiment on HCT-15, above 100 µM; in the experiment with NCI-H23, > 100 µM (inactive); in the experiment with SN12C, > 100 µM (inactive); in the experiment with LOX IMVI it was > 100 µM (inactive). Besides, the GI50 in the experiment on OVCAR-3 is > 100 µM (inactive).

`COc1cc(C2c3cc4c(cc3[C@@H](Nc3ccccc3)C3CO[C@@H](OC)[C@H]23)OCO4)cc(OC)c1O` (stereo not given in full): the GI50 was 4.82 µM (inactive) with HT-29; 7.11 µM (inactive) in the experiment with HOP-62; 6.07 µM (inactive) with OVCAR-5; 5.83 µM (inactive) with KM12; 1.11 µM (active) in the experiment with NCI-H460; 8.81 µM (inactive) in the experiment with PC-3. In addition, the GI50 in the experiment on K562 was 6.78 µM (inactive); in the experiment on SR it was 1.95 µM (inactive); with NCI/ADR-RES, 14.6 µM (inactive); in the experiment on CCRF-CEM, 2.76 µM (inactive); with HCC 2998 it was 6.9 µM (inactive); with ACHN, 3.18 µM (inactive). The GI50 with HCT-15 was 3.61 µM; in the experiment on SN12C, 7.36 µM (inactive).
